# Data published in patent publication US8304438B2, “Heteroarylacrylamides and their use as pharmaceuticals” (Sanofi, priority 2006, dated 2012).
# Counter-ions that a name gives are not always drawn.
# Tested on: eNOS promoter
# Assay: Activation of eNOS transcription (eNOS promoter firefly luciferase reporter gene assay)
# Assay type: cell-based
# Settings: human endothelial cell line stable transfected with eNOS promoter-luciferase construct; 18 h incubation; EC50 determined graphically; read-out: EC50 values of transcription induction ratios (TIR)
# Protocol: Activation of eNOS transcription was measured as described in detail by L^1 et al., “Activation of protein kinase C alpha and/or epsilon enhances transcription of the human endothelial nitric oxide synthase gene”, Mol. Pharmacol. 53 (1998) 630. Briefly, a 3.5 kB long fragment 5′ of the starting codon of the eNOS gene was cloned, sequenced and cloned in firefly luciferase expression plasmids to monitor activation of the eNOS promoter by reporter gene activity. A human endothelial cell line stable transfected and expressing this promoter-reporter construct was used for compound testing. Cells were incubated for 18 h with the compounds.
# All compounds were dissolved in sterile dimethyl sulfoxide (DMSO). A final concentration of 0.5% DMSO in complete medium was allowed. Induction of reporter gene expression in these cells was measured using a standard luciferase assay system (Promega, Cat. No. E150) according to the manufacturer's instructions. Luciferase induction in cells incubated with compounds were compared to those incubated with solvent alone. The ratio of both activities (transcription induction ratio, TIR) was plotted as a function of compound concentration. Typically, TIR values started at low concentrations at a ratio of 1, indicating no compound effect, and extended up to a maximum TIR value TIR(max) which indicates the increase of the eNOS transcription. EC50 values of transcription induction ratios as a function of compound concentration were determined graphically.
row,Compound,EC50 [nM]
1,"O=C(/C=C/c1cnc2ccccc2c1)N1CCCCC1 [Example 1, 1-(Piperidin-1-yl)-3-(quinolin-3-yl)-propenone]",500 to 5000
2,"O=C(/C=C/c1ccc(-c2ccccc2OC(F)(F)F)o1)N1CCCCC1 [Example 13, 1-(Piperidin-1-yl)-3-[5-(2-trifluoromethoxy-phenyl)-furan-2-yl]-propenone]",500 to 5000
3,"O=C(/C=C/c1cc(-c2ccccc2F)cs1)N1CCCCC1 [Example 15, 3-[4-(2-Fluoro-phenyl)-thiophen-2-yl]-1-(piperidin-1-yl)-propenone]",< 500
4,"O=C(/C=C/c1ccc(Oc2ccc(F)cc2)nc1)N1CCCCC1 [Example 76, 3-[6-(4-Fluoro-phenoxy)-pyridin-3-yl]-1-(piperidin-1-yl)-propenone Trifluoroacetic Acid Salt]",500 to 5000
5,"C/C(=C\C(=O)N(C)C)c1ccc(-c2ccccc2F)nc1 [Example 110, 3-[6-(2-Fluoro-phenyl)-pyridin-3-yl]-but-2-enoic Acid Dimethylamide Trifluoroacetic Acid Salt]",< 500
6,"O=C(/C=C/c1nc(-c2ccc(F)cc2)cs1)Nc1ccccn1 [Example 116, 3-[4-(4-Fluoro-phenyl)-thiazol-2-yl]-N-(pyridin-2-yl)-acrylamide]",500 to 5000
7,"C/C(=C\C(=O)N1CCCCC1)c1cc(-c2ccccc2F)cs1 [Example 123, 3-[4-(2-Fluoro-phenyl)-thiophen-2-yl]-1-(piperidin-1-yl)-but-2-en-1-one]",500 to 5000
8,"O=C(/C=C/c1ccc(-c2cc3ccccc3s2)nc1)N1CCCCC1 [Example 125, 3-(6-(Benzo[b]thiophen-2-yl)-pyridin-3-yl)-1-(piperidin-1-yl)-propenone]",500 to 5000
9,"CC(C)N(C(=O)/C=C/c1nc(-c2ccc(F)cc2)cs1)C(C)C [Example 145, 3-[4-(4-Fluoro-phenyl)-thiazol-2-yl]-N,N-diisopropyl-acrylamide]",< 500
10,"CC(C)(C)NC(=O)/C=C/c1nc(-c2ccc(F)cc2)cs1 [Example 146, N-tert-Butyl-3-[4-(4-fluoro-phenyl)-thiazol-2-yl]-acrylamide]",< 500
11,"O=C(/C=C/c1ccc(-c2ccccc2F)s1)Nc1ccccc1 [Example 150, 3-[5-(2-Fluoro-phenyl)-thiophen-2-yl]-N-phenyl-acrylamide]",500 to 5000
